These are literature values, as cited in patent US11793802B2, “Treatment of acute myeloid leukemia (AML) with venetoclax failure” (Sumitomo Pharma Oncology, Inc., priority 2019, dated 2023).

The structures appear in SMILES notation.

The subject of data set [1] is MCL-1 protein.
The test system of data set [2] is hematological cancers, including AML. Particulars: patients treated with venetoclax.

For `CN1CC[C@H](c2c(OP(=O)(O)O)cc(O)c3c(=O)cc(-c4ccccc4Cl)oc23)[C@H](O)C1` [Formula (I-b)], the oral bioavailability result is recorded as “orally bioavailable”.
Regarding `Nc1ncn([C@@H]2O[C@H](CO)[C@@H](O)[C@H]2O)c(=O)n1` [azacitidine], in data set [1], the “effect on MCL-1 protein levels in blasts” value is recorded as “reduce MCL-1 protein levels”.
For the compound `CC1(C)CCC(CN2CCN(c3ccc(C(=O)NS(=O)(=O)c4ccc(NCC5CCOCC5)c([N+](=O)[O-])c4)c(Oc4cnc5[nH]ccc5c4)c3)CC2)=C(c2ccc(Cl)cc2)C1` [venetoclax], in data set [2], the “patients demonstrated complete remission” value is 8-20% and the “patients showed no response” value is 20-30%. In data set [2] (after 18 months), the “patients showed disease progression” value is recorded as around 50%.
